Experimental data as given in patent US11958861B2, “Spirocyclic lactams as JAK2 V617F inhibitors” (Incyte Corporation, priority 2021, dated 2024).
Where a name gives a salt, the structure may show the parent alone.

Columns and labels:
[1] = molecular target: T1, pseudo-kinase domain (JH2, amino-acids 536-812) of human Wild Type JAK2 (Homo sapiens, UniProt O60674, F794H/W659A/W777A); assay: JAK2 LanthaScreen JH2-WT Binding Assay; details: 1 hour at 25° C.
T1 construct: pseudo-kinase domain (JH2, amino-acids 536-812 with 3 surface mutations W659A, W777A, F794H); purchased BPS Bioscience 79463; host or cells: baculovirus expression system
Outline: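 Biotinylated C-terminal His-Avi-tagged JH2 (residues 536-812, baculovirus-expressed) at 0.145 nM was incubated with serially diluted compounds, 50 nM fluorescent JAK2-JH2 tracer and 0.25 nM streptavidin-Tb cryptate in pH 7.5 Tris buffer with MgCl2, Brij-35, BSA, EGTA, glycerol and DTT. LanthaScreen TR-FRET was read after 1 hour at 25° C; IC50 came from four-parameter fits.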

[2] = molecular target: T2, catalytic domain (JH1, amino acids 808-1132) of human JAK2 (Homo sapiens, UniProt O60674); assay: JAK2 HTRF Enzyme Activity Assay; assay type: biochemical; details: ATP 30 μM, read-out: ENZ 30UMATP
T2 construct: catalytic domain (JH1, amino acids 808-1132) of human JAK2; His (N); purchased BPS Bioscience 40450; host or cells: baculovirus expression system
Outline: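 His-tagged JAK2 JH1 from baculovirus, 0.015 nM, incubated with compound, ATP at 30 μM or 1 mM and 500 nM biotinylated peptide, pH 7.5, 60 min at 25° C. HTRF read-out via Eu-anti-phosphotyrosine and streptavidin-APC after EDTA stop; IC50 from four-parameter dose-response fit.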

[3] = molecular target: T3, pseudo-kinase domain (JH2, amino-acids 536-812) of human V617F mutant JAK2 (Homo sapiens, UniProt O60674, F794H/V617F/W659A/W777A); assay: JAK2 LanthaScreen JH2-V617F Binding Assay; details: 1 hour at 25° C.
T3 construct: pseudo-kinase domain (JH2, amino-acids 536-812 with 3 surface mutations W659A, W777A, F794H); purchased BPS Bioscience 79498; host or cells: baculovirus expression system
Outline: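 Biotinylated His-Avi-tagged JH2 protein was baculovirus-expressed and used at 0.26 nM. It was incubated with compound, 50 nM fluorescent JH2 tracer and 0.25 nM streptavidin-Tb for 1 h at 25 °C in pH 7.5 Tris buffer with MgCl2, BSA, DTT. Non-specific binding was defined with 2 mM ATP. IC50 came from four-parameter fits of TR-FRET signal.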

[4] = molecular target: T4, catalytic domain (JH1, amino acids 826-1132) of human JAK2 (Homo sapiens, UniProt O60674); assay: JAK2 LanthaScreen JH1 Binding Assay; details: 2 hours at 25° C.
T4 construct: catalytic domain (JH1, amino acids 826-1132) of human JAK2; purchased Carna Biosciences 08-445-20N; host or cells: baculovirus expression system
Outline: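 FLAG-tagged biotinylated JAK2 JH1 (1.5 nM) incubated with compounds, 50 nM fluorescent tracer and 0.5 nM streptavidin-Tb in Tris pH 7.5 buffer with MgCl2, BSA, DTT, 2 h at 25 °C.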

T1 sequence (O60674 536-812 W659A/W777A/F794H): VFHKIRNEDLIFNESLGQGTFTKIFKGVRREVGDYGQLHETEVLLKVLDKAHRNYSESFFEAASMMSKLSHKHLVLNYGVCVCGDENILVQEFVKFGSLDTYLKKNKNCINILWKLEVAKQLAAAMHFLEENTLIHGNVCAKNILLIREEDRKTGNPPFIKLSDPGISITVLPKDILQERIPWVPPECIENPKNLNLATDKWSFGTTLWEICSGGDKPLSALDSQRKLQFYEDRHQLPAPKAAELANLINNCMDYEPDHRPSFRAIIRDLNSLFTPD
T3 sequence (O60674 536-812 V617F/W659A/W777A/F794H): as the sequence (O60674 536-812 W659A/W777A/F794H) above, with V82F counted along it
T2 sequence (O60674 808-1132): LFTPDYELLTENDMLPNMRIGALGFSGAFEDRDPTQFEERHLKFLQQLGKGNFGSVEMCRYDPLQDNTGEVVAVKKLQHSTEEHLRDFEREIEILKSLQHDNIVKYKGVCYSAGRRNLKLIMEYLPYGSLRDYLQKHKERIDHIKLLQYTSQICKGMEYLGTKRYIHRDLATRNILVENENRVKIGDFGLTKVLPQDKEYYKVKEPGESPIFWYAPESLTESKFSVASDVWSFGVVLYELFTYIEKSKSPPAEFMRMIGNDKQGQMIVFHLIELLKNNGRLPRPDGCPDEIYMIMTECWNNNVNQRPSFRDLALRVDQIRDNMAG
T4 sequence (O60674 826-1132): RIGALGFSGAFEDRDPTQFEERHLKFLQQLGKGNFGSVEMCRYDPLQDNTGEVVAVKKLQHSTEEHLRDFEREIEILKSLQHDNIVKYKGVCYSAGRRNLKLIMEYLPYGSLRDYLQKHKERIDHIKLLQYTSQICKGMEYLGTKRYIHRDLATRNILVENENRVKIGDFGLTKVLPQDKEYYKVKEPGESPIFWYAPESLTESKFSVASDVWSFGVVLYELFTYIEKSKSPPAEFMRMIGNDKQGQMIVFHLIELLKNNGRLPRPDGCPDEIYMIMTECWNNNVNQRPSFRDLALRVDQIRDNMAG

Row | Compound | IC50 [1] [nM] | IC50 [2] [nM] | IC50 [3] [nM] | IC50 [4] [nM]
1 | [2H]C([2H])([2H])n1ncc2cc(-c3c(-c4cnn5c4CCC5)[nH]c4ncc5c(c34)C3(CCN(C4(CC#N)CCCC4)CC3)C(=O)N5C)ccc21 [Example 79, 2-(1-(2-(5,6-Dihydro-4H-pyrrolo[1,2-b]pyrazol-3-yl)-6-methyl-1-(1-(methyl-d3)-1H-indazol-5-yl)-7-oxo-6,7-dihydro-3H-spiro[dipyrrolo[2,3-b:3′,2′-d]pyridine-8,4′-piperidin]-1′-yl)cyclopentyl)acetonitrile] | ≤ 100 | 1250 to 2500 | ≤ 100 | > 2500
2 | COC(=O)N1CCC(CC#N)(N2CCC3(CC2)C(=O)N(C)c2cnc4[nH]c(-c5cnn(C)c5)c(-c5ccc6c(cnn6C)c5)c4c23)CC1 [Example 81, Methyl 4-(cyanomethyl)-4-(6-methyl-1-(1-methyl-1H-indazol-5-yl)-2-(1-methyl-1H-pyrazol-4-yl)-7-oxo-6,7-dihydro-3H-spiro[dipyrrolo[2,3-b:3′,2′-d]pyridine-8,4′-piperidin]-1′-yl)piperidine-1-carboxylate] | ≤ 100 | 500 to 1250 | ≤ 100 | 500 to 1250
3 | CC(=O)NC12CC(N3CCC4(CC3)C(=O)N(C)c3cnc5[nH]c(-c6cnn(C)c6)c(-c6ccc7c(cnn7C)c6)c5c34)(C1)C2 [Example 82, N-(3-(6-Methyl-1-(1-methyl-1H-indazol-5-yl)-2-(1-methyl-1H-pyrazol-4-yl)-7-oxo-6,7-dihydro-3H-spiro[dipyrrolo[2,3-b:3′,2′-d]pyridine-8,4′-piperidin]-1′-yl)bicyclo[1.1.1]pentan-1-yl)acetamide] | ≤ 100 | 100 to 500 | ≤ 100 | 100 to 500
4 | COC(=O)N1CC2(N3CCC4(CC3)C(=O)N(C)c3cnc5[nH]c(-c6cnn(C)c6)c(-c6ccc7c(cnn7C)c6)c5c34)CC1C2 [Example 83, Methyl 4-(6-methyl-1-(1-methyl-1H-indazol-5-yl)-2-(1-methyl-1H-pyrazol-4-yl)-7-oxo-6,7-dihydro-3H-spiro[dipyrrolo[2,3-b:3′,2′-d]pyridine-8,4′-piperidin]-1′-yl)-2-azabicyclo[2.1.1]hexane-2-carboxylate] | ≤ 100 | 1250 to 2500 | ≤ 100 | 1250 to 2500
5 | CN1C(=O)C2(CCN(C(C)(C)C3CNC3)CC2)c2c1cnc1[nH]c(-c3cnn(C)c3)c(-c3ccc4c(cnn4C)c3)c21 [Example 84, 1′-(2-(Azetidin-3-yl)propan-2-yl)-6-methyl-1-(1-methyl-1H-indazol-5-yl)-2-(1-methyl-1H-pyrazol-4-yl)-3,6-dihydro-7H-spiro[dipyrrolo[2,3-b:3′,2′-d]pyridine-8,4′-piperidin]-7-one] | ≤ 100 | 100 to 500 | ≤ 100 | 500 to 1250
6 | O=C(O)C(F)(F)F.[2H]C([2H])([2H])n1ncc2cc(-c3c(-c4ccc(CN5CCOCC5)cc4)[nH]c4ncc5c(c34)C3(CC4(CN(S(=O)(=O)CC)C4)C3)C(=O)N5C)ccc21 [Example 85, 1-(Ethylsulfonyl)-6″-methyl-1″-(1-(methyl-d3)-1H-indazol-5-yl)-2″-(4-(morpholinomethyl)phenyl)-3″,6″-dihydro-7″H-dispiro[azetidine-3,1′-cyclobutane-3′,8″-dipyrrolo[2,3-b:3′,2′-d]pyridin]-7″-one, trifluoroacetate salt] | ≤ 100 | 1250 to 2500 | ≤ 100 | 1250 to 2500
7 | CCS(=O)(=O)N1CC2(C1)CC1(C2)C(=O)N(C)c2cnc3[nH]c(-c4cnn(C)c4)c(-c4ccc5c(cnn5C)c4)c3c21 [Example 86, l-(Ethylsulfonyl)-6″-methyl-1″-(1-methyl-1H-indazol-5-yl)-2″-(1-methyl-1H-pyrazol-4-yl)-3″,6″-dihydro-7″H-dispiro[azetidine-3,1′-cyclobutane-3′,8″-dipyrrolo[2,3-b:3′,2′-d]pyridin]-7″-one, trifluoroacetate salt] | ≤ 100 | 500 to 1250 | ≤ 100 | 500 to 1250
8 | CCS(=O)(=O)N1CC2(C1)CC1(C2)C(=O)N(C)c2cnc3[nH]c(-c4cnn(CC5CC5)c4)c(-c4ccc5c(cnn5C)c4)c3c21 [Example 87, 2″-(1-(Cyclopropylmethyl)-1H-pyrazol-4-yl)-1-(ethylsulfonyl)-6″-methyl-1″-(1-methyl-1H-indazol-5-yl)-3″,6″-dihydro-7″H-dispiro[azetidine-3,1′-cyclobutane-3′,8″-dipyrrolo[2,3-b:3′,2′-d]pyridin]-7″-one, trifluoroacetate salt] | ≤ 100 | 1250 to 2500 | ≤ 100 | 1250 to 2500
9 | CCS(=O)(=O)N1CC2(C1)CC1(C2)C(=O)N(C)c2cnc3[nH]c(-c4cnn(CCOC)c4)c(-c4ccc5c(cnn5C)c4)c3c21 [Example 88, 1-(Ethylsulfonyl)-2″-(1-(2-methoxyethyl)-1H-pyrazol-4-yl)-6″-methyl-1″-(1-methyl-1H-indazol-5-yl)-3″,6″-dihydro-7″H-dispiro[azetidine-3,1′-cyclobutane-3′,8″-dipyrrolo[2,3-b:3′,2′-d]pyridin]-7″-one, trifluoroacetate salt] | ≤ 100 | 1250 to 2500 | ≤ 100 | 1250 to 2500
10 | O=C(O)C(F)(F)F.[2H]C([2H])([2H])N1C(=O)C2(CC3(CN(S(=O)(=O)CC)C3)C2)c2c1cnc1[nH]c(-c3cnn(C(C)C)c3)c(-c3ccc4c(cnn4C)c3)c21 [Example 89, 1-(Ethylsulfonyl)-2″-(1-isopropyl-1H-pyrazol-4-yl)-6″-(methyl-d3)-1″-(1-methyl-1H-indazol-5-yl)-3″,6″-dihydro-7″H-dispiro[azetidine-3,1′-cyclobutane-3′,8″-dipyrrolo[2,3-b:3′,2′-d]pyridin]-7″-one, trifluoroacetate salt] | ≤ 100 | 1250 to 2500 | ≤ 100 | 1250 to 2500
11 | CCS(=O)(=O)N1CC2(C1)CC1(C2)C(=O)N(C)c2cnc3[nH]c(-c4cnn(C5CCCC5)c4)c(-c4ccc5c(cnn5C)c4)c3c21 [Example 90, 2″-(1-Cyclopentyl-1H-pyrazol-4-yl)-1-(ethylsulfonyl)-6″-methyl-1″-(1-methyl-1H-indazol-5-yl)-3″,6″-dihydro-7″H-dispiro[azetidine-3,1′-cyclobutane-3′,8″-dipyrrolo[2,3-b:3′,2′-d]pyridin]-7″-one, trifluoroacetate salt] | ≤ 100 | 1250 to 2500 | ≤ 100 | 1250 to 2500
12 | CCS(=O)(=O)N1CC2(C1)CC1(C2)C(=O)N(C)c2cnc3[nH]c(-c4ccc(CN5CCC(C#N)CC5)cc4)c(-c4ccc5c(cnn5C)c4)c3c21 [Example 91, l-(4-(1-(Ethylsulfonyl)-6″-methyl-1″-(1-(methy-d3)-1H-indazol-5-yl)-7″-oxo-6″,7″-dihydro-3″H-dispiro[azetidine-3,1′-cyclobutane-3′,8″-dipyrrolo[2,3-b:3′,2′-d]pyridin]-2″-yl)benzyl)piperidine-4-carbonitrile, trifluoroacetate salt] | ≤ 100 | 1250 to 2500 | ≤ 100 | 1250 to 2500
13 | O=C(O)C(F)(F)F.[2H]C([2H])([2H])N1C(=O)C2(CC3(CN(S(=O)(=O)CC)C3)C2)c2c1cnc1[nH]c(-c3ccc(CN4CCOCC4)cc3)c(-c3ccc(OC)cc3)c21 [Example 92, 1-(Ethylsulfonyl)-1″-(4-methoxyphenyl)-6″-(methyl-d3)-2″-(4-(morpholinomethyl)phenyl)-3″,6″-dihydro-7″H-dispiro[azetidine-3,1′-cyclobutane-3′,8″-dipyrrolo[2,3-b:3′,2′-d]pyridin]-7″-one, trifluoroacetate salt] | ≤ 100 | > 2500 | ≤ 100 | > 2500
14 | CCS(=O)(=O)N1CC2(C1)CC1(C2)C(=O)N(C)c2cnc3[nH]c(-c4cnn(CC(F)F)c4)c(-c4ccc5c(cnn5C)c4)c3c21 [Example 93, 2″-(1-(2,2-Difluoroethyl)-1H-pyrazol-4-yl)-1-(ethylsulfonyl)-6″-methyl-1″-(1-methyl-1H-indazol-5-yl)-3″,6″-dihydro-7″-dispiro[azetidine-3,1′-cyclobutane-3′,8″-dipyrrolo[2,3-b:3′,2′-d]pyridin]-7″-one, trifluoroacetate salt] | ≤ 100 | 1250 to 2500 | ≤ 100 | 1250 to 2500
